Test results as given in patent US10683269B2 (MISSION THERAPEUTICS LIMITED, priority 2016, dated 2020).

target: T1, USP7 (Homo sapiens, UniProt Q93009); assay: USP7 biochemical IC50 assay (fluorescence polarisation, TAMRA labelled peptide linked to ubiquitin via an iso-peptide bond); conditions: 30 min pre-incubation of enzyme and compound, read after 2 hr incubation at room temperature, read-out: IC50 range
T1 construct: The USP7 construct was PCR amplified and cloned into a pFLAG-CMV-6a vector (Sigma-Aldrich) with an N-terminal FLAG tag; made in house; host or cells: HEK293T
T1 sequence (Q93009 whole entry): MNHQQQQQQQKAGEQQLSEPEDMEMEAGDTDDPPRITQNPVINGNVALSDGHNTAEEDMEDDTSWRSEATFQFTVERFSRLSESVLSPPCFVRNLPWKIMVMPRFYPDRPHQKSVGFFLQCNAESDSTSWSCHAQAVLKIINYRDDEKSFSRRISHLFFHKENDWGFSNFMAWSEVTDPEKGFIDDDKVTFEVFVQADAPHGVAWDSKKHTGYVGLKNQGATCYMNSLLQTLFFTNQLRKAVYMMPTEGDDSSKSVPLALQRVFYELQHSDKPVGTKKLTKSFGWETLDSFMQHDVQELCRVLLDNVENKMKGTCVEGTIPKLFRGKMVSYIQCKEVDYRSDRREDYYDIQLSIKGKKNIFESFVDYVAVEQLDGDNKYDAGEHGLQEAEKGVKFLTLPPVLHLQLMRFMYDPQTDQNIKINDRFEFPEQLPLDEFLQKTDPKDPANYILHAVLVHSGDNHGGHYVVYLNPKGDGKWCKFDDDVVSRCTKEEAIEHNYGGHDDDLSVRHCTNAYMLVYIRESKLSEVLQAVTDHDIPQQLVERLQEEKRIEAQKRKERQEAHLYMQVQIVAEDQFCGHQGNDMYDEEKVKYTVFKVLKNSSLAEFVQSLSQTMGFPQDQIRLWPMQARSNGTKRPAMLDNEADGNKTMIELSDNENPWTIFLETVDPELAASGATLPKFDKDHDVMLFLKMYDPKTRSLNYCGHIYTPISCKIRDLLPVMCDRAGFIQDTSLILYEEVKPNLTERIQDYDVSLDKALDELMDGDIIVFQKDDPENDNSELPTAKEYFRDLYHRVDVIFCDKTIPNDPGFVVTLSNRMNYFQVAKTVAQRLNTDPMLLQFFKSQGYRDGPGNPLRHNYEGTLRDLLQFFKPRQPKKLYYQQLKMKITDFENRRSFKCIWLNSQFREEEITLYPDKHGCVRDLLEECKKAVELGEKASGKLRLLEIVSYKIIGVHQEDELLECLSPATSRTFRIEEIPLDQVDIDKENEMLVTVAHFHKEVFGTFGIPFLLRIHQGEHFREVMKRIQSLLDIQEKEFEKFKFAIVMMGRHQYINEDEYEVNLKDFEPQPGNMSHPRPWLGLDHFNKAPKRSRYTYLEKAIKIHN
How it was run: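 Fluorescence polarisation at 540 nm excitation/590 nm emission, read immediately and after 2 hr at room temperature, following addition of 50 nM TAMRA-labelled iso-peptide ubiquitin substrate.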

Compound	IC50
N#CN1Cc2cccc(-c3ccccc3C(N)=O)c2C1 [Example 157, 2-(2-cyanoisoindolin-4-yl)benzamide]	1 to 10 µM
N#CN1Cc2cccc(-c3ccc(F)cc3C(N)=O)c2C1 [Example 158, 2-(2-cyanoisoindolin-4-yl)-5-fluorobenzamide]	1 to 10 µM
CC(=O)c1ccccc1-c1cccc2c1CN(C#N)C2 [Example 159, 4-(2-acetylphenyl)isoindoline-2-carbonitrile]	1 to 10 µM
CNS(=O)(=O)c1ccccc1-c1cccc2c1CN(C#N)C2 [Example 160, 2-(2-cyanoisoindolin-4-yl)-N-methylbenzenesulfonamide]	1 to 10 µM
N#CN1Cc2cccc(-c3ccccc3S(N)(=O)=O)c2C1 [Example 161, 2-(2-cyanoisoindolin-4-yl)benzenesulfonamide]	1 to 10 µM
CS(=O)(=O)c1ccccc1-c1cccc2c1CN(C#N)C2 [Example 162, 4-(2-(methylsulfonyl)phenyl)isoindoline-2-carbonitrile]	1 to 10 µM
CN1CCC[C@@H](C(=O)Nc2cc3c(c(-c4ccncc4)c2)CN(C#N)C3)C1 [Example 163, (R)-N-(2-cyano-7-(pyridin-4-yl)isoindolin-5-yl)-1-methylpiperidine-3-carboxamide]	1 to 10 µM
CN1CCC[C@@H](C(=O)Nc2cc3c(c(-c4cccnc4)c2)CN(C#N)C3)C1 [Example 164, (R)-N-(2-cyano-7-(pyridin-3-yl)isoindolin-5-yl)-1-methylpiperidine-3-carboxamide]	1 to 10 µM
CN(C)S(=O)(=O)c1ccccc1-c1cccc2c1CN(C#N)C2 [Example 174, 2-(2-cyanoisoindolin-4-yl)-N,N-dimethylbenzenesulfonamide]	1 to 10 µM
CCNS(=O)(=O)c1ccccc1-c1cccc2c1CN(C#N)C2 [Example 175, 2-(2-cyanoisoindolin-4-yl)-N-ethylbenzenesulfonamide]	1 to 10 µM
N#CN1Cc2cccc(-c3ccccc3S(=O)(=O)N3CCC3)c2C1 [Example 178, 4-(2-(azetidin-1-ylsulfonyl)phenyl)isoindoline-2-carbonitrile]	1 to 10 µM
N#CN1Cc2cccc(-c3ccccc3S(=O)(=O)NCCO)c2C1 [Example 179, 2-(2-cyanoisoindolin-4-yl)-N-(2-hydroxyethyl)benzenesulfonamide]	1 to 10 µM
N#CN1Cc2cccc(-c3ccccc3C(=O)NCCn3cnccc3=O)c2C1 [Example 180, 2-(2-cyanoisoindolin-4-yl)-N-(2-(6-oxopyrimidin-1(6H)-yl)ethyl)benzamide]	1 to 10 µM
COc1cccc(-c2nnc(-c3cnn(C)c3)c3c2CN(C#N)C3)c1 [Example 182, 1-(3-methoxyphenyl)-4-(1-methyl-1H-pyrazol-4-yl)-5,7-dihydro-6H-pyrrolo[3,4-d]pyridazine-6-carbonitrile]	1 to 10 µM
N#CN1Cc2ncnc(N3CCc4ccccc4C3)c2C1 [Example 183, 4-(3,4-dihydroisoquinolin-2(1H)-yl)-5,7-dihydro-6H-pyrrolo[3,4-c]pyrimidine-6-carbonitrile]	1 to 10 µM
Cc1ccccc1OC1CCN(c2ncnc3c2CN(C#N)C3)CC1 [Example 184, 4-(4-(o-tolyloxy)piperidin-1-yl)-5,7-dihydro-6H-pyrrolo[3,4-d]pyrimidine-6-carbonitrile]	1 to 10 µM
COc1ccccc1OC1CCN(c2ncnc3c2CN(C#N)C3)CC1 [Example 186, 4-(4-(2-methoxyphenoxy)piperidin-1-yl)-5,7-dihydro-6H-pyrrolo[3,4-d]pyrimidine-6-carbonitrile]	1 to 10 µM
CC(=O)Nc1nc2c(c(-c3ccc(F)cc3)n1)CN(C#N)C2 [Example 187, N-(6-cyano-4-(4-fluorophenyl)-6,7-dihydro-5H-pyrrolo[3,4-c]pyrimidin-2-yl)acetamide]	1 to 10 µM
CS(=O)(=O)CCNc1nc2c(c(-c3ccccc3)n1)CN(C#N)C2 [Example 188, 2-((2-(methylsulfonyl)ethyl)amino)-4-phenyl-5,7-dihydro-6H-pyrrolo[3,4-d]pyrimidine-6-carbonitrile]	1 to 10 µM
N#CN1Cc2nc(NC3CCOCC3)nc(-c3ccccc3)c2C1 [Example 189, 4-phenyl-2-((tetrahydro-2H-pyran-4-yl)amino)-5,7-dihydro-6H-pyrrolo[3,4-d]pyrimidine-6-carbonitrile]	10 to 30 µM
CN(CCO)c1nc2c(c(-c3ccccc3)n1)CN(C#N)C2 [Example 190, 2-((2-hydroxyethyl)(methyl)amino)-4-phenyl-5,7-dihydro-6H-pyrrolo[3,4-d]pyrimidine-6-carbonitrile]	1 to 10 µM
CN1CCOC(CN(C)c2nc3c(c(-c4ccccc4)n2)CN(C#N)C3)C1 (centres unmarked) [Example 191, 2-(methyl((4-methylmorpholin-2-yl)methyl)amino)-4-phenyl-5,7-dihydro-6H-pyrrolo[3,4-d]pyrimidine-6-carbonitrile]	1 to 10 µM
CN1CCOC(CNc2nc3c(c(-c4cccnc4)n2)CN(C#N)C3)C1 (centres unmarked) [Example 192, 2-(((4-methylmorpholin-2-yl)methyl)amino)-4-(pyridin-3-yl)-5,7-dihydro-6H-pyrrolo[3,4-d]pyrimidine-6-carbonitrile]	1 to 10 µM
CN1CCOC(CNc2nc3c(c(-c4cccc(F)c4)n2)CN(C#N)C3)C1 (centres unmarked) [Example 193, 4-(3-fluorophenyl)-2-(((4-methylmorpholin-2-yl)methyl)amino)-5,7-dihydro-6H-pyrrolo[3,4-d]pyrimidine-6-carbonitrile]	1 to 10 µM
CN1CCOC(CNc2nc3c(c(-c4ccc(F)cc4)n2)CN(C#N)C3)C1 (centres unmarked) [Example 194, 4-(4-fluorophenyl)-2-(((4-methylmorpholin-2-yl)methyl)amino)-5,7-dihydro-6H-pyrrolo[3,4-d]pyrimidine-6-carbonitrile]	1 to 10 µM
CC(=O)Nc1cccc(-c2nc(NCC3CN(C)CCO3)nc3c2CN(C#N)C3)c1 (centres unmarked) [Example 195, N-(3-(6-cyano-2-(((4-methylmorpholin-2-yl)methyl)amino)-6,7-dihydro-5H-pyrrolo[3,4-d]pyrimidin-4-yl)phenyl)acetamide]	1 to 10 µM
CN1CCCC(CNc2nc3c(c(N4CCc5ccccc5C4)n2)CN(C#N)C3)C1 (centres unmarked) [Example 196, 4-(3,4-dihydroisoquinolin-2(1H)-yl)-2-(((1-methylpiperidin-3-yl)methyl)amino)-5,7-dihydro-6H-pyrrolo[3,4-d]pyrimidine-6-carbonitrile]	1 to 10 µM
CN1CCOC(CNc2nc3c(c(N4CCc5ccccc5C4)n2)CN(C#N)C3)C1 (centres unmarked) [Example 197, 4-(3,4-dihydroisoquinolin-2(1H)-yl)-2-(((4-methylmorpholin-2-yl)methyl)amino)-5,7-dihydro-6H-pyrrolo[3,4-d]pyrimidine-6-carbonitrile]	1 to 10 µM
Cn1nccc1CNc1nc2c(c(N3CCc4ccccc4C3)n1)CN(C#N)C2 [Example 198, 4-(3,4-dihydroisoquinolin-2(1H)-yl)-2-(((1-methyl-1H-pyrazol-5-yl)methyl)amino)-5,7-dihydro-6H-pyrrolo[3,4-d]pyrimidine-6-carbonitrile]	1 to 10 µM
N#CN1Cc2nc(N[C@H]3CC[C@H](O)CC3)nc(N3CCc4ccccc4C3)c2C1 [Example 199]	1 to 10 µM

Second part, the compound after the results:

IC50	Compound
1 to 10 µM	Cc1cc(-c2cccc3c2CN(C#N)C3)c(C(N)=O)cc1C#N [Example 156, 5-cyano-2-(2-cyanoisoindolin-4-yl)-4-methylbenzamide]
1 to 10 µM	N#CN1Cc2cccc(-c3cccc4c3NC(=O)C4)c2C1 [Example 165, 4-(2-oxoindolin-7-yl)isoindoline-2-carbonitrile]
1 to 10 µM	N#Cc1ccccc1-c1cccc2c1CN(C#N)C2 [Example 166, 4-(2-cyanophenyl)isoindoline-2-carbonitrile]
1 to 10 µM	N#Cc1cc(F)ccc1-c1cccc2c1CN(C#N)C2 [Example 167, 4-(2-cyano-4-fluorophenyl)isoindoline-2-carbonitrile]
1 to 10 µM	N#Cc1cccc(F)c1-c1cccc2c1CN(C#N)C2 [Example 168, 4-(2-cyano-6-fluorophenyl)isoindoline-2-carbonitrile]
1 to 10 µM	N#Cc1cc(Cl)ccc1-c1cccc2c1CN(C#N)C2 [Example 169, 4-(4-chloro-2-cyanophenyl)isoindoline-2-carbonitrile]
1 to 10 µM	COc1cccc(-c2cccc3c2CN(C#N)C3)c1C#N [Example 170, 4-(2-cyano-3-methoxyphenyl)isoindoline-2-carbonitrile]
1 to 10 µM	COc1ccc(-c2cccc3c2CN(C#N)C3)c(C#N)c1 [Example 171, 4-(2-cyano-4-methoxyphenyl)isoindoline-2-carbonitrile]
1 to 10 µM	COc1ccc(C#N)c(-c2cccc3c2CN(C#N)C3)c1 [Example 172, 4-(2-cyano-5-methoxyphenyl)isoindoline-2-carbonitrile]
10 to 30 µM	COc1ccc(C#N)c(-c2cccc3c2CN(C#N)C3)n1 [Example 173, 4-(3-cyano-6-methoxypyridin-2-yl)isoindoline-2-carbonitrile]
1 to 10 µM	N#Cc1ccc(-c2cccc3c2CN(C#N)C3)c2c1CCC2=O [Example 176, 4-(7-cyano-3-oxo-2,3-dihydro-1H-inden-4-yl)isoindoline-2-carbonitrile]
1 to 10 µM	N#Cc1ccc(-c2cccc3c2CN(C#N)C3)c(C(F)(F)F)c1 [Example 177, 4-(4-cyano-2-(trifluoromethyl)phenyl)isoindoline-2-carbonitrile]
1 to 10 µM	N#Cc1cc(-n2ccnc2)ccc1-c1cccc2c1CN(C#N)C2 [Example 181, 4-(2-cyano-4-(1H-imidazol-1-yl)phenyl)isoindoline-2-carbonitrile]

same assay, conditions: IC50 range, 30 min pre-incubation of enzyme and compound, read after 2 hr incubation at room temperature

IC50	Compound
10 to 30 µM	N#CN1Cc2ncnc(N3CCC(OCc4ccccc4)CC3)c2C1 [Example 185, 4-(4-(benzyloxy)piperidin-1-yl)-5,7-dihydro-6H-pyrrolo[3,4-d]pyriimidine-6-carbonitrile]
